# Source: patent US8987201B2, “Black bear parathyroid hormone and methods of using black bear parathyroid hormone” (Michigan Technological University, priority 2009, dated 2015)
# Marks after values point to notes of the source that are not given here.
# What was measured:
# [1] = test system: ovariectomized (OVX) Sprague-Dawley rats; experiment: In vivo rat OVX dose response study: bone μCT and bone strength
# Description: Ninety female, 3-month old Sprague-Dawley rats were obtained. Eighty (80) of the rats were ovariectomized (OVX) and ten (10) underwent a sham OVX procedure (sham OVX) in which the ovaries were left in the animal. The OVX animals were randomly assigned into groups of ten for further experiments.
# Following the actual or sham OVX procedure, all animals were untreated for 6 weeks to allow bone loss. After the 6 week period of bone loss, groups of animals were injected for a six- or eight-week period (daily for five days per week) with vehicle (saline) or 3, 10, or 30 μg/kg bear or human PTH1-34. […] The sham OVX group as well as one group of actual OVX rats were euthanized at six weeks while the remaining animals were euthanized at fourteen weeks following the OVX procedure. Samples were obtained from the euthanized animals for further analysis.
# Three-dimensional images of bones were obtained using micro-computed tomography (μCT). The three-dimensional images were then used to quantify bone parameters, as explained below. The measurements were conducted on a 1.6 mm-thick region that begins at a position 2 mm from the growth plate (FIG. 8). Bone samples were obtained and analyzed from sham (FIG. 9A, “Sham OVX 6 weeks”) and actual (FIG. 9B, “OVX 6 weeks”) OVX rats that were euthanized at six weeks after the procedure, as well as a group of actual OVX rats that were euthanized at fourteen weeks after the procedure (FIG. 9C, “OVX 14 weeks”). The rats in the OVX 14 group were given injections of vehicle (saline) for 8 weeks following the 6 week bone loss period, in parallel with the PTH1-34 injections for eight weeks (FIGS. 9D, 9E, and 9F). The samples shown in FIGS. 9D, 9E, and 9F were obtained from rats that were injected for eight weeks following the 6 week bone loss period, with 3, 10, or 30 μg/kg black bear PTH1-34 (“bbPTH”), respectively.
# male mice = conditions: Sakai et al. 1999, cited from earlier work
# Male Swiss-Webster mice [2] = experiment: Cortical bone dynamic histomorphometry in the femur (calcein labels); format: in vivo, mouse; conditions: femoral midshaft, 2.5 nmol/kg s.c., 8 weeks, SD in parentheses
# From the text: (§1) All handling procedures and experiments were approved by the Michigan Technological University Institutional Animal Care and Use Committees. Male Swiss-Webster mice were obtained from a commercial breeder (Harlan, Indianapolis, Ind.). All animals were maintained on a 12-h light/12-h dark cycle, and were permitted free access to water and food containing 0.95% calcium (Purina Rodent Diet #5001).
# (§2) In the first experiment, 11 wk old mice received daily (5 days/week) subcutaneous injections of 2.5 nmol/kg PTH 1-34 (hPTH 1-34 or bbPTH 1-34) or acidic saline vehicle (0.15 M NaCl+0.001 N HCl) for 8 weeks (n=10 mice/group). In the second experiment, 12 wk old mice received daily (5 days/week) subcutaneous injections of 2.5 nmol/kg PTH 1-84 (hPTH 1-84 or bbPTH 1-84) or acidic saline vehicle for 8 weeks (n=10 mice/group). All PTH- and vehicle-treated animals received subcutaneous injections of calcein at a dosage of 10 mg/kg on days 12 and 3 before death to label mineralizing bone surfaces. Twenty-four hours following the last treatment injection, mice were sacrificed by carbon dioxide asphyxiation. Right femurs were fixed in 10% neutral buffered formalin. Left femurs were wrapped in 0.15M saline soaked gauze and stored at −20 deg C. Left tibias were stored in 70% ethanol at 4 deg C.
# (§3) Following the bending test, the left femoral diaphyses were ashed in a furnace to determine mineral content (ash fraction). Right femoral diaphyses were embedded in methyl methacrylate and sectioned with a diamond saw to expose the midshaft cross-section. Images of the midshaft cross-sections were captured using a digital camera (Spot Insight QE, Diagnostic Instruments Inc., Sterling Heights, Mich.), and Scion Image analysis software (Scion Corporation, Frederick, Md.) was used to calculate the periosteal area (Ps.Ar), cortical area (Ct.Ar), and endosteal area (Es.Ar) for each sample. Cortical bone thickness (Ct.Th) was calculated in 0.1 mm increments for each anatomical quadrant and for the entire cross-section using image analysis software (Bioquant Osteo, Nashville, Tenn.). Thin sections from the midshaft of the right femur were ground to a thickness of 50 μm and mounted on glass slides. Images of calcein labels were captured at 100× magnification and periosteal and endosteal mineral apposition rates (Ps.MAR and Es.MAR, respectively) and mineralizing surfaces (Ps.MS/BS and Es.MS/MS) were quantified (Bioquant) for each femur.
# (§4) All bone geometrical, architectural, and mineral properties were normalized by body mass to account for potential variation in animal size (31-33). Trabecular bone properties quantified by micro-computed tomography were compared by ANOVA between vehicle, bear, and human PTH-treated mice within each study (PTH 1-34 or PTH 1-84). The microCT parameters were not directly compared between the PTH 1-34 and PTH 1-84 studies because analyses were conducted on different microCT machines. For all other bone properties, all six experimental groups (from both the PTH 1-34 and PTH 1-84 studies) were compared with ANOVA and Fisher's PLSD. A significance of p<0.05 was used for all comparisons.
# Male Swiss-Webster mice [3] = experiment: Cortical bone mineral content (ash fraction) and geometrical properties of the femur; format: in vivo, mouse; conditions: femoral midshaft, 2.5 nmol/kg s.c., 8 weeks, normalized by body mass, SD in parentheses
# From the text: as §1, §2, §3, §4
# procollagen-1 mRNA = conditions: Nasu et al., 1998; cited from earlier work
substance,measurement,setting,value
human PTH 1-34 [hPTH 1-34],average thickness of the trabecular struts (Tb.Th) compared to vehicle-treated controls,[1]; OVX rats,significantly (p<0.05) increased
same,"increasing tibial cortical bone volume (BV), human vs bear",[1]; OVX rats,better than bear PTH1-34
same,trabecular bone mineralization (M.Dn) vs vehicle (saline) alone,[1]; OVX rats,significantly (p<0.05) greater trabecular bone mineralization
same,"bone mineral apparent density, hPTH vs bbPTH","[1]; OVX rats, 30 μg/kg",significantly higher (p<0.05)
same,bone mineral apparent density (App.Dn) vs vehicle (saline) alone,"[1]; OVX rats, 3, 10, or 30 μg/kg",significantly higher (p<0.05)
same,bone volume as a fraction of total volume (BV/TV) vs vehicle (saline) alone,"[1]; OVX rats, 3, 10, or 30 μg/kg",significantly (p<0.05) greater bone volume fraction than treatment with vehicle (saline) alone at all three levels tested
same,"bone volume fraction, human PTH vs bear PTH","[1]; OVX rats, highest dose of 30 μg/kg",significantly (p<0.05) greater
same,tibial cortical porosity relative to vehicle (saline) alone,"[1]; OVX rats, middle (10 μg/kg) and higher doses (30 μg/kg)",significantly (p<0.05) decreased
same,femoral cortical bone strength relative to vehicle-treated controls,"[1]; OVX rats, only higher doses (30 μg/kg)",significant (p<0.05) increases
same,trabecular thickness (Tb.Th) or mineral apposition rates (MAR) in the proximal tibia,male mice; daily injections of 1 nmol/kg for 6 weeks,did not affect
same,trabecular thickness (Tb.Th) and mineral apposition rates (MAR) in the proximal tibia,male mice; higher molar dosage (˜10 nmol/kg),increased
same,Endosteal MAR,Male Swiss-Webster mice [2],0.56 (0.18)
same,Endosteal MS/BS,Male Swiss-Webster mice [2],39.3 (17.7)
same,Periosteal MAR,Male Swiss-Webster mice [2],0.53 (0.21)
same,Periosteal MS/BS,Male Swiss-Webster mice [2],24.0 (13.8)
same,Ct.Ar,Male Swiss-Webster mice [3],30.7 (3.0) mm^2/kg
same,Ct.Th,Male Swiss-Webster mice [3],2.22 (0.20)^b mm/kg
same,Es.Ar,Male Swiss-Webster mice [3],24.7 (3.7) mm^2/kg
same,Ps.Ar,Male Swiss-Webster mice [3],"55.3 (5.2)^b,c mm^2/kg"
same,production of procollagen-1 mRNA,procollagen-1 mRNA,down-regulates
